The source made the active and inactive calls. The rule behind the calls is not given here.
System: CCRIS mutagenicity, Ames/micronucleus/aberration tests
Experiment: CCRIS mutagenicity studies
[1] = Test System: AMES SALMONELLA TYPHIMURIUM, Strain/Indicator: TA98, Metabolic Activation: NONE, Method: STANDARD PLATE
[2] = Test System: AMES SALMONELLA TYPHIMURIUM, Strain/Indicator: TA98, Metabolic Activation: RAT, LIVER, S-9, AROCLOR 1254, Method: STANDARD PLATE
[3] = Test System: AMES SALMONELLA TYPHIMURIUM, Strain/Indicator: TA100, Metabolic Activation: NONE, Method: STANDARD PLATE

CCOC(=O)NCCOc1ccc(Oc2ccccc2)cc1
mutagenic call (Test System: Ames Salmonella typhimurium, Strain/Indicator: TA97, Metabolic Activation: None, Method: Plate incorporation): inactive; negative | mutagenic call (Test System: Ames Salmonella typhimurium, Strain/Indicator: TA97, Metabolic Activation: None, Method: Preincubation): inactive; negative | mutagenic call (Test System: Ames Salmonella typhimurium, Strain/Indicator: TA97, Metabolic Activation: Rat, Liver, S-9, Phenobarbital and beta-naphthoflavone, Method: Plate incorporation): inactive; negative | mutagenic call (Test System: Ames Salmonella typhimurium, Strain/Indicator: TA97, Metabolic Activation: Rat, Liver, S-9, Phenobarbital and beta-naphthoflavone, Method: Preincubation): inactive; negative | mutagenic call (Test System: Ames Salmonella typhimurium, Strain/Indicator: TA98, Metabolic Activation: None, Method: Plate incorporation): inactive; negative | mutagenic call (Test System: Ames Salmonella typhimurium, Strain/Indicator: TA98, Metabolic Activation: None, Method: Preincubation): inactive; negative | mutagenic call (Test System: Ames Salmonella typhimurium, Strain/Indicator: TA98, Metabolic Activation: Rat, Liver, S-9, Phenobarbital and beta-naphthoflavone, Method: Plate incorporation): inactive; negative | mutagenic call (Test System: Ames Salmonella typhimurium, Strain/Indicator: TA98, Metabolic Activation: Rat, Liver, S-9, Phenobarbital and beta-naphthoflavone, Method: Preincubation): inactive; negative | mutagenic call (Test System: Ames Salmonella typhimurium, Strain/Indicator: TA100, Metabolic Activation: None, Method: Plate incorporation): inactive; negative | mutagenic call (Test System: Ames Salmonella typhimurium, Strain/Indicator: TA100, Metabolic Activation: None, Method: Preincubation): inactive; negative | mutagenic call (Test System: Ames Salmonella typhimurium, Strain/Indicator: TA100, Metabolic Activation: Rat, Liver, S-9, Phenobarbital and beta-naphthoflavone, Method: Plate incorporation): inactive; negative | mutagenic call (Test System: Ames Salmonella typhimurium, Strain/Indicator: TA100, Metabolic Activation: Rat, Liver, S-9, Phenobarbital and beta-naphthoflavone, Method: Preincubation): inactive; negative | mutagenic call (Test System: Ames Salmonella typhimurium, Strain/Indicator: TA102, Metabolic Activation: None, Method: Plate incorporation): inactive; negative | mutagenic call (Test System: Ames Salmonella typhimurium, Strain/Indicator: TA102, Metabolic Activation: None, Method: Preincubation): inactive; negative | mutagenic call (Test System: Ames Salmonella typhimurium, Strain/Indicator: TA102, Metabolic Activation: Rat, Liver, S-9, Phenobarbital and beta-naphthoflavone, Method: Plate incorporation): inactive; negative | mutagenic call (Test System: Ames Salmonella typhimurium, Strain/Indicator: TA102, Metabolic Activation: Rat, Liver, S-9, Phenobarbital and beta-naphthoflavone, Method: Preincubation): inactive; negative | mutagenic call (Test System: Ames Salmonella typhimurium, Strain/Indicator: TA1535, Metabolic Activation: None, Method: Plate incorporation): inactive; negative | mutagenic call (Test System: Ames Salmonella typhimurium, Strain/Indicator: TA1535, Metabolic Activation: None, Method: Preincubation): inactive; negative | mutagenic call (Test System: Ames Salmonella typhimurium, Strain/Indicator: TA1535, Metabolic Activation: Rat, Liver, S-9, Phenobarbital and beta-naphthoflavone, Method: Plate incorporation): inactive; negative | mutagenic call (Test System: Ames Salmonella typhimurium, Strain/Indicator: TA1535, Metabolic Activation: Rat, Liver, S-9, Phenobarbital and beta-naphthoflavone, Method: Preincubation): inactive; negative | mutagenic call (Test System: Ames Salmonella typhimurium, Strain/Indicator: TA1537, Metabolic Activation: None, Method: Plate incorporation): inactive; negative | mutagenic call (Test System: Ames Salmonella typhimurium, Strain/Indicator: TA1537, Metabolic Activation: None, Method: Preincubation): inactive; negative | mutagenic call (Test System: Ames Salmonella typhimurium, Strain/Indicator: TA1537, Metabolic Activation: Rat, Liver, S-9, Phenobarbital and beta-naphthoflavone, Method: Plate incorporation): inactive; negative | mutagenic call (Test System: Ames Salmonella typhimurium, Strain/Indicator: TA1537, Metabolic Activation: Rat, Liver, S-9, Phenobarbital and beta-naphthoflavone, Method: Preincubation): inactive; negative | mutagenic call (Test System: Ames Salmonella typhimurium, Strain/Indicator: TA1538, Metabolic Activation: None, Method: Plate incorporation): inactive; negative | mutagenic call (Test System: Ames Salmonella typhimurium, Strain/Indicator: TA1538, Metabolic Activation: None, Method: Preincubation): inactive; negative | mutagenic call (Test System: Ames Salmonella typhimurium, Strain/Indicator: TA1538, Metabolic Activation: Rat, Liver, S-9, Phenobarbital and beta-naphthoflavone, Method: Plate incorporation): inactive; negative | mutagenic call (Test System: Ames Salmonella typhimurium, Strain/Indicator: TA1538, Metabolic Activation: Rat, Liver, S-9, Phenobarbital and beta-naphthoflavone, Method: Preincubation): inactive; negative

O=[N+]([O-])c1ccc2ccc3c4c(cc5ccc1c2c53)CCC=C4
mutagenic call (Test System: AMES SALMONELLA TYPHIMURIUM, Strain/Indicator: TA98(1,8-DNP6), Metabolic Activation: NONE, Method: STANDARD PLATE): active; positive | mutagenic call (Test System: AMES SALMONELLA TYPHIMURIUM, Strain/Indicator: TA98(1,8-DNP6), Metabolic Activation: RAT, LIVER, S-9, AROCLOR 1254, Method: STANDARD PLATE): active; positive | mutagenic call (Test System: AMES SALMONELLA TYPHIMURIUM, Strain/Indicator: TA98(NR), Metabolic Activation: NONE, Method: STANDARD PLATE): active; positive | mutagenic call (Test System: AMES SALMONELLA TYPHIMURIUM, Strain/Indicator: TA98(NR), Metabolic Activation: RAT, LIVER, S-9, AROCLOR 1254, Method: STANDARD PLATE): active; positive | mutagenic call [1]: active; positive | mutagenic call [2]: active; positive | mutagenic call [3]: inactive; negative | mutagenic call (Test System: AMES SALMONELLA TYPHIMURIUM, Strain/Indicator: TA100, Metabolic Activation: RAT, LIVER, S-9, AROCLOR 1254, Method: STANDARD PLATE): active; positive

CCOC(=O)NO
mutagenic call (Test System: AMES SALMONELLA TYPHIMURIUM, Strain/Indicator: TA98, Metabolic Activation: RAT, LIVER, S-9, KC500 OR PHENOBARBITAL, Method: LIQUID SUSPENSION): active; positive | mutagenic call (Test System: E. COLI, Strain/Indicator: WP2 UVRA, Metabolic Activation: NONE, Method: FLUCTUATION TEST): active; positive

Cc1cnc2c(C)cc3c(nc(N)n3C)c2n1
mutagenic call [2]: active; positive

CCN(C(=O)CCCCl)c1snc2ccccc12
mutagenic call [1]: inactive; negative | mutagenic call (Test System: AMES SALMONELLA TYPHIMURIUM, Strain/Indicator: TA98, Metabolic Activation: S-9, Method: STANDARD PLATE): inactive; negative | mutagenic call [3]: inactive; negative | mutagenic call (Test System: AMES SALMONELLA TYPHIMURIUM, Strain/Indicator: TA100, Metabolic Activation: S-9, Method: STANDARD PLATE): inactive; negative | mutagenic call (Test System: AMES SALMONELLA TYPHIMURIUM, Strain/Indicator: TA1535, Metabolic Activation: NONE, Method: STANDARD PLATE): inactive; negative | mutagenic call (Test System: AMES SALMONELLA TYPHIMURIUM, Strain/Indicator: TA1535, Metabolic Activation: S-9, Method: STANDARD PLATE): inactive; negative | mutagenic call (Test System: AMES SALMONELLA TYPHIMURIUM, Strain/Indicator: TA1537, Metabolic Activation: NONE, Method: STANDARD PLATE): inactive; negative | mutagenic call (Test System: AMES SALMONELLA TYPHIMURIUM, Strain/Indicator: TA1537, Metabolic Activation: S-9, Method: STANDARD PLATE): inactive; negative

CCCN(N)CCC
mutagenic call (Test System: AMES SALMONELLA TYPHIMURIUM, Strain/Indicator: TA100, Metabolic Activation: NONE, Method: PREINCUBATION (11 HR GROWTH PERIOD FOR BACTERIA)): active; positive | mutagenic call (Test System: AMES SALMONELLA TYPHIMURIUM, Strain/Indicator: TA100, Metabolic Activation: RAT, LIVER, S-9, PCB, Method: PREINCUBATION (11 HR GROWTH PERIOD FOR BACTERIA)): inactive; negative | mutagenic call (Test System: AMES SALMONELLA TYPHIMURIUM, Strain/Indicator: TA102, Metabolic Activation: NONE, Method: PREINCUBATION (5 OR 7 HR GROWTH PERIOD FOR BACTERIA)): active; positive | mutagenic call (Test System: AMES SALMONELLA TYPHIMURIUM, Strain/Indicator: TA102, Metabolic Activation: RAT, LIVER, S-9, PCB, Method: PREINCUBATION (5 OR 7 HR GROWTH PERIOD FOR BACTERIA)): inactive; negative

Cc1cc(N)c(S(=O)(=O)O)cc1Cl
mutagenic call (Test System: AMES SALMONELLA TYPHIMURIUM, Strain/Indicator: TA98, Metabolic Activation: NONE, Method: PREINCUBATION): inactive; negative | mutagenic call (Test System: AMES SALMONELLA TYPHIMURIUM, Strain/Indicator: TA98, Metabolic Activation: RAT, LIVER, S-9, KC 500, Method: PREINCUBATION): inactive; negative | mutagenic call (Test System: AMES SALMONELLA TYPHIMURIUM, Strain/Indicator: TA100, Metabolic Activation: NONE, Method: PREINCUBATION): inactive; negative | mutagenic call (Test System: AMES SALMONELLA TYPHIMURIUM, Strain/Indicator: TA100, Metabolic Activation: RAT, LIVER, S-9, KC 500, Method: PREINCUBATION): inactive; negative | mutagenic call (Test System: AMES SALMONELLA TYPHIMURIUM, Strain/Indicator: TA1535, Metabolic Activation: NONE, Method: PREINCUBATION): inactive; negative | mutagenic call (Test System: AMES SALMONELLA TYPHIMURIUM, Strain/Indicator: TA1535, Metabolic Activation: RAT, LIVER, S-9, KC 500, Method: PREINCUBATION): inactive; negative | mutagenic call (Test System: AMES SALMONELLA TYPHIMURIUM, Strain/Indicator: TA1537, Metabolic Activation: NONE, Method: PREINCUBATION): inactive; negative | mutagenic call (Test System: AMES SALMONELLA TYPHIMURIUM, Strain/Indicator: TA1537, Metabolic Activation: RAT, LIVER, S-9, KC 500, Method: PREINCUBATION): inactive; negative | mutagenic call (Test System: AMES SALMONELLA TYPHIMURIUM, Strain/Indicator: TA1538, Metabolic Activation: NONE, Method: PREINCUBATION): inactive; negative | mutagenic call (Test System: AMES SALMONELLA TYPHIMURIUM, Strain/Indicator: TA1538, Metabolic Activation: RAT, LIVER, S-9, KC 500, Method: PREINCUBATION): inactive; negative | mutagenic call (Test System: E. COLI, Strain/Indicator: WP2 UVRA, Metabolic Activation: NONE, Method: PREINCUBATION): inactive; negative | mutagenic call (Test System: E. COLI, Strain/Indicator: WP2 UVRA, Metabolic Activation: RAT, LIVER, S-9, KC 500, Method: PREINCUBATION): inactive; negative

From PubChem BioAssay AID1259407 (Chemical Carcinogenesis Research Information System (CCRIS), 2018)
